Experimental data taken from patent US4689345A, “Oxygenated alkyl substituted bicyclo alkanes” (CBD Corporation, priority 1986, dated 1987).
“And” between values parts separate entries of the source, which are not always exact repeats. Equal entries are not always repeated. Where two headings read alike, the source gives them in different places.

Legend:
[1] = tested on: estrogen receptor; experiment: Estrogen receptor inhibition, Trichophyton; format: binding
[2] = tested on: estrogen receptor; format: binding, Histoplasma
[3] = tested on: androgen receptor; experiment: Androgen receptor inhibition, Trichophyton; format: binding
[4] = tested on: estrogen receptor; experiment: Estrogen receptor inhibition, Sporotrichum; format: binding
[5] = tested on: androgen receptor; experiment: Androgen receptor inhibition, Actinomyces; format: binding
[6] = tested on: progesterone receptor; format: binding; conditions: Histoplasma
[7] = tested on: androgen receptor; experiment: Androgen receptor inhibition, Pseudomonas testosteroni; format: binding; conditions: DHT:anti-androgen 1:1,000
[8] = tested on: progesterone receptor; experiment: Progesterone receptor inhibition, Coccodia; format: binding
[9] = tested on: progesterone receptor; experiment: Progesterone receptor inhibition, Norcardia; format: binding
[10] = tested on: progesterone receptor; experiment: Progesterone receptor inhibition, Fusarium calorum; format: binding
Excerpt: (§1) In the second series of experiments using the compound of the invention 2-(5-hydroxyhept-1-yl) bicyclo[3.3.0]octan-7-one {hexahydro-4-(5-hydroxyheptyl)-2-(1H)-pentalenone} upon zeralenone and zearalanol production, zearalenone and zearalanol were chemically obtained from Sigma Chemical Co., St. Louis, Mo.

[11] = tested on: fungal androgen receptors; experiment: Fungal androgen receptor inhibition, Fusarium; format: binding
Excerpt: as §1

[12] = tested on: fungal infections; experiment: Efficacy studies and toxicity studies
Excerpt: At the present time, therapies for fungal infections are not satisfactory and are frequently dangerous.

[13] = tested on: estrogen receptor; experiment: Estrogen receptor inhibition, Candida; format: binding
[14] = tested on: estrogen receptor; experiment: Estrogen receptor inhibition, Actinomyces; format: binding
[15] = tested on: progesterone receptor; experiment: Progesterone receptor inhibition, Actinomyces; format: binding
[16] = tested on: Saccharomyces cerevisiae; experiment: Fermentation: ethanol production; format: cell-based
[17] = tested on: estrogen receptor; experiment: Estrogen receptor inhibition, Fulsarium gravarium; format: binding
Excerpt: as §1

[18] = tested on: hard fibrous band; experiment: Hard fibrous band formation around breast implants following augmentation surgery; set-up: species or system human
Excerpt: (§2) "Hard fibrous band" formation was retarded around breast implants following augmentation surgery.

[19] = tested on: progesterone receptor; experiment: Effect on progesterone receptors in melanoma; format: binding; conditions: 1:1000 DHT to compound
[20] = tested on: estrogen receptor (keloid cytosol); experiment: Keloid cytosol steroid binding assay, estrogen; set-up: species or system human
[21] = tested on: progesterone receptors; experiment: Effect on progesterone receptors in breast capsule tissue; format: binding, human; conditions: breast capsule / hard band tissue
Method: as §2
The tissues were evaluated, with appropriate controls, for effects by the novel anti-androgen.

[22] = target: T1, progesterone receptor (Homo sapiens, UniProt P06401); experiment: Progesterone receptor inhibition in skin/tissue fibroblast lines; format: cell-based; conditions: DHT:compound 1:1,000
T1 construct: Skin fibroblast tissue lines from surgical explants were obtained; endogenous in cells; host or cells: skin fibroblast lines from surgical explants (keloid, scalp, forearm)
T1 sequence (P06401 1-933): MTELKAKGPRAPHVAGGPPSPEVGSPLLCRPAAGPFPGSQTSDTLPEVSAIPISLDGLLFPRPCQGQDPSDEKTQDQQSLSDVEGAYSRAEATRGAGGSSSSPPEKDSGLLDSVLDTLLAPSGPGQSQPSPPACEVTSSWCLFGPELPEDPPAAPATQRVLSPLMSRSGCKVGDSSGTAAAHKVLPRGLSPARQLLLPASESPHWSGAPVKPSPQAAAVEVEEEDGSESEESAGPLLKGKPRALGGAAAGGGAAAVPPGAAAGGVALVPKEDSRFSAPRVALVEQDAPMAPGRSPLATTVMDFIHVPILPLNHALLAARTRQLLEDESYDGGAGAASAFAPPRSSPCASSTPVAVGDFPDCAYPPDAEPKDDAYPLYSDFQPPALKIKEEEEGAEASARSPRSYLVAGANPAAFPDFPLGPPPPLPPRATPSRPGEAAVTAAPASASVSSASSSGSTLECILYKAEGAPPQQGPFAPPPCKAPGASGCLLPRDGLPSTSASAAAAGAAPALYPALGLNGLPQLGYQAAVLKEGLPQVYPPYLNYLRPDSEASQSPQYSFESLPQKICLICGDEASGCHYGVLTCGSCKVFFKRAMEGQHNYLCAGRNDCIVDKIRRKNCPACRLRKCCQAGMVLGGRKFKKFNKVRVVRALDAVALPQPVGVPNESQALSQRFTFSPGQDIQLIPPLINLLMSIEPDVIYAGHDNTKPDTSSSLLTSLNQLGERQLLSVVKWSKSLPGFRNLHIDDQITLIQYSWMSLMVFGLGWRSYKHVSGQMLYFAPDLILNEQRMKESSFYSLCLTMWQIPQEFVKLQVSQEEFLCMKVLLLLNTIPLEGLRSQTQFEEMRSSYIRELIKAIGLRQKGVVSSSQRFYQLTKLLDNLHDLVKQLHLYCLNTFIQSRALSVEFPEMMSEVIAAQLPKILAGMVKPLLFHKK
Method: Explants of both normal and keloid skin and tissue fibroblast lines were established.
Hormonal receptor analyses on these tissues were performed by the method of Griffith et al., Journal of Clinical Investigation, Vol. 57, page 1340 (1978).

[23] = tested on: estrogen receptor; experiment: Effect on estrogen receptors in melanoma; format: binding; conditions: 1:1000 DHT to compound
[24] = target: T2, androgen receptor sites (Homo sapiens, UniProt P10275); experiment: Retarding collagen formation through blockage of androgen receptor sites; conditions: Example 53
T2 construct: other tests of the document use human skin, keloid and fibroblasts with 3H-DHT
Method: Accordingly, to treat arteriosclerosis, an oral dosage unit formulation is produced which contains 2 mg of 2-(5-methoxyhept-1-yl)bicyclo [3.3.0]octan-7-one {hexahydro-4-(5-methoxyheptyl)-2(1H)-pentalenone}, which is delivered to a subject once every six hours.

[25] = tested on: keloid; experiment: Suppression of keloid formation; set-up: species or system human
[26] = tested on: androgen binding sites in a melanoma; experiment: Blocking of androgen binding sites in a melanoma; conditions: 1:1000 of dihydrotestosterone to the tested compound

T2 sequence (P10275 whole entry): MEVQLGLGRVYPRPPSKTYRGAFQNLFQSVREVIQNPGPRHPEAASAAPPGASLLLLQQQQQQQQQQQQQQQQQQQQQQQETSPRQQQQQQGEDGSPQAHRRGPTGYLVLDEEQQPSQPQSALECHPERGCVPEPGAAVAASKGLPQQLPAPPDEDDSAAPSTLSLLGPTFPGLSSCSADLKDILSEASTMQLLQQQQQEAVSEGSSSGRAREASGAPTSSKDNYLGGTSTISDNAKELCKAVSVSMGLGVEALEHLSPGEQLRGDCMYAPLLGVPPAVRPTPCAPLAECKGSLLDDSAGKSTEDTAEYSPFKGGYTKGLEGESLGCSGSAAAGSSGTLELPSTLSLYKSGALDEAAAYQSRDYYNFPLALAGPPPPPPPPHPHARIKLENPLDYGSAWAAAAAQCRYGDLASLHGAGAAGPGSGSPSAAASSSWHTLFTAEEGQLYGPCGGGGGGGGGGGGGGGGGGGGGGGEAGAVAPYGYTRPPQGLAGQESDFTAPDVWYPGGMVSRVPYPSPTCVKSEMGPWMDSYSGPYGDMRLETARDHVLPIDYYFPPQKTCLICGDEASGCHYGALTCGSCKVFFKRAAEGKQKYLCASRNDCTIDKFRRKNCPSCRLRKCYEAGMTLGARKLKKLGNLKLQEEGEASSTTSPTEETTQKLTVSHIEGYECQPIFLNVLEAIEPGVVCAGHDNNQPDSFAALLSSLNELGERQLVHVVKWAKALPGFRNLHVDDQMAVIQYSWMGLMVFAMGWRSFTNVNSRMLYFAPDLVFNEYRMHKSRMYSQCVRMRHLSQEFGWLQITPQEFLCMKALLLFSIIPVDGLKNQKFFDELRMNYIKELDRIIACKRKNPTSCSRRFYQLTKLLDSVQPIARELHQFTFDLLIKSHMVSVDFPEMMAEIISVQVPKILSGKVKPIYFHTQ

CCC(O)CCCCC1CCC2CC(=O)CC12 (stereo not shown) [Compound IV]
% Estrogen Receptor Inhibition [1]: 0% | % Estrogen Receptor Inhibition [2]: 0% | % Androgen Receptor Inhibition [3]: 81% | % Estrogen Receptor Inhibition [4]: 0% | % Androgen Receptor Inhibition [5]: 90% | % Progesterone Receptor Inhibition [6]: 0% | % Androgen Receptor Inhibition ([7]; strain 1): 90% | % Androgen Receptor Inhibition ([7]; strain 2): 49% | % Androgen Receptor Inhibition ([7]; strain 3): 39% | % Androgen Receptor Inhibition ([7]; strain 4): 63% | % Progesterone Receptor Inhibition [8]: 4% | % Progesterone Receptor Inhibition [9]: 0% | % Progesterone Receptor Inhibition ([10]; DHT:anti-androgen 1:1): 7% | % Progesterone Receptor Inhibition ([10]; DHT:anti-androgen 1:10): 9% | fungal androgen receptors blocked ([11]; DHT:compound 1:1,000): 9-83% | % Androgen Receptor Inhibition ([11]; fungal hormone Zeralanol): 84% | % Androgen Receptor Inhibition ([11]; fungal hormone Zeralenone): 79% | blocking of interaction of fungal hormone and its hormonal receptors ([11]; hormone:anti-androgen 1:1 to 1:1,000): 26-90% | efficacy studies [12]: efficacious | toxicity studies [12]: safe | % Estrogen Receptor Inhibition [13]: 0% | % Estrogen Receptor Inhibition [14]: 0% | % Progesterone Receptor Inhibition [15]: 0% | depression of ethanol production ([16]; other strains): one-eighth its normal rate | increase of ethanol production ([16]; some strains): as much as three times the natural rate | % Estrogen Receptor Inhibition ([17]; DHT:anti-androgen 1:1): 0% | % Estrogen Receptor Inhibition ([17]; DHT:anti-androgen 1:10): 0% | % Estrogen Receptor Inhibition ([17]; DHT:anti-androgen 1:100): 0% | % Estrogen Receptor Inhibition ([17]; DHT:anti-androgen 1:1,000): 0%

CCC(CCCCC1CCC2CC(=O)CC12)OC (stereo not shown) [Compound V, 2-(5-Methoxyhept-1-yl)bicyclo[3.3.0]octan-7-one]
hard fibrous band formation around breast implants [18]: retarded | effect on progesterone receptors in melanoma tissue [19]: no significant effect | effect on binding of estrogen [20]: no effect | effect on progesterone receptors [21]: without any significant effects | effect on progesterone receptors ([21]; listed as 2-(5-methoxyhept-1-yl)bicyclo[3.3.0]octan-7-one): no significant effects | interference with progesterone receptors ([22]; more than 400 experiments): without significant interference | % Progesterone Receptor Inhibition ([22]; forearm): 4% | % Progesterone Receptor Inhibition ([22]; keloid): 0% | % Progesterone Receptor Inhibition ([22]; keloid, listed as 2-(5-methoxyhept-1-yl)bicyclo[3.3.0]octan-7-one): no measurable | % Progesterone Receptor Inhibition ([22]; scalp): 7% and 0% and 3% | effect on estrogen receptors in melanoma tissue [23]: no significant effect | retarding collagen formation through blockage of androgen receptor sites [24]: excellent results in retarding collagen formation through blockage of androgen receptor sites | keloid formation [25]: suppression of keloid formation | block of androgen binding sites in a melanoma [26]: 59-80%
